Values of other authors, collected in patent US5788978A, “Injectable pulsatile ivermectin composition” (priority 1996, dated 1998).

What was measured:
parasites = details: in vivo

Substance: ivermectin
- minimum efficiency level in serum (parasites): 2 to 5 nanogrammes per milliliter of serum
- solubility in acqueous media: insoluble
